{"source": "patent US8026218B2", "about": "“Bifunctional analgesic compounds for opioid receptor agonists and neurokinin-1 receptor antagonists” (The University of Arizona, priority 2006, dated 2011)", "key": {"[1]": {"target": "T1, human NK1 receptor (hNK1) (Homo sapiens, UniProt P25103)", "T1 construct": "expressed in transfected cells", "T1 sequence (P25103 whole entry)": "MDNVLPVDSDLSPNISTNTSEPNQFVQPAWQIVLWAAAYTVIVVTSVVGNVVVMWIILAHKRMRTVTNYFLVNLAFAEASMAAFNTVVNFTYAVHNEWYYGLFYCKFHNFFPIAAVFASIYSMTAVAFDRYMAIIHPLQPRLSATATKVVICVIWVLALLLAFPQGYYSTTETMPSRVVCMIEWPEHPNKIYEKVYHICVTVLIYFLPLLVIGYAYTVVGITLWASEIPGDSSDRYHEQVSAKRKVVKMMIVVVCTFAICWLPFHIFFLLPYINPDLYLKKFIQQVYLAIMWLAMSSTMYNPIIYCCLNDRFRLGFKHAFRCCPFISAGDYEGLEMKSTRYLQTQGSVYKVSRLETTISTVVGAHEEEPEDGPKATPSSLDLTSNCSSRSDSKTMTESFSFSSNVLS", "experiment": "Radioligand competition binding, [3H]-Substance P, hNK1"}, "[2]": {"experiment": "Octanol/saline distribution (logD7.4)", "type": "physicochemical", "settings": "0.05 N HEPES buffer in 0.1 N NaCl", "experimental": "HEPES buffer (0.05 M HEPES buffer in 0.1 M NaCl, pH 7.4, 500 μL) was added to 2 mg of compound and mixed with 500 μL of 1-octanol. The sample was shaken at r.t. for 12 h to allow equilibrating. The sample was centrifuged at 6500 rpm in a VanGuard V6500 (GlaxoSmithKline, Research Triangle Park, N.C.) for 15 min. The layers were separated and each layer was centrifuged once again. The compound concentrations of obtained layers were analyzed by HPLC (30-70% of acetonitrile containing 0.1% TFA within 20 min and up to 95% within additional 5 min, 1 mL/min, 230 nm, Vydac 218TP104 C-18 column). The logarithm of 1-octanol/saline distribution (logD7.4) was calculated as the ratio of compound concentration in the 1-octanol and saline phases.\nOctanol/saline distribution (logD7.4) (Yamamoto, 2007, J. Med. Chem., submitted). HEPES buffer (0.05 M HEPES buffer in 0.1 M NaCl, pH 7.4, 500 μL) was added to 2 mg of compound and mixed with 500 μL of 1-octanol. The sample was shaken at r.t. for 12 h to allow equilibrating. The sample was centrifuged at 6500 rpm in a VanGuard V6500 (GlaxoSmithKline, Research Triangle Park, N.C.) for 15 min. The layers were separated and each layer was centrifuged once again. The compound concentrations in the obtained layers were analyzed by HPLC (30-70% of acetonitrile containing 0.1% TFA within 20 min and up to 95% within additional 5 min, 1 mL/min, 230 nm, Vydac 218TP104 C-18 column). The logarithm of 1-octanol/saline distribution (logD7.4) was calculated as the ratio of compound concentration in the 1-octanol and saline phases."}, "[3]": {"target": "T2, Substance P receptors (guinea pig NK1) (Cavia porcellus, UniProt P30547)", "T2 construct": "from tissue; host or cells: guinea pig (Hartley) ileum LMMP, 1 μM naloxone present", "T2 sequence (P30547 whole entry)": "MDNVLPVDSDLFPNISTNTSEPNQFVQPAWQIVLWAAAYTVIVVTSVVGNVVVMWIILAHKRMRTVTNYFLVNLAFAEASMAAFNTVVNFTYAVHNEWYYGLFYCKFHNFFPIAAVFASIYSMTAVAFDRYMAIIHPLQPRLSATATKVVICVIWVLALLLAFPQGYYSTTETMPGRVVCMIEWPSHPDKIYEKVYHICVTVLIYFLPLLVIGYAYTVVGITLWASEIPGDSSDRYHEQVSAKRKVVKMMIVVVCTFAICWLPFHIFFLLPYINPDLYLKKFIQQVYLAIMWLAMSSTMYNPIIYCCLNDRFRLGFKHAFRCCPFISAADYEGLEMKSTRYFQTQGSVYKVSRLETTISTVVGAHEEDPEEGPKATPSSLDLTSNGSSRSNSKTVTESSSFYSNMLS", "experiment": "Guinea pig isolated ileum (GPI) assay with substance P stimulation in presence of 1 μM naloxone"}, "[4]": {"target": "T3, rat NK1 (rNK1) receptor (Rattus norvegicus, UniProt P14600)", "T3 construct": "expressed in transfected cells; host or cells: CHO (rNK-1/CHO cell line from Dr. James Krause)", "T3 sequence (P14600 whole entry)": "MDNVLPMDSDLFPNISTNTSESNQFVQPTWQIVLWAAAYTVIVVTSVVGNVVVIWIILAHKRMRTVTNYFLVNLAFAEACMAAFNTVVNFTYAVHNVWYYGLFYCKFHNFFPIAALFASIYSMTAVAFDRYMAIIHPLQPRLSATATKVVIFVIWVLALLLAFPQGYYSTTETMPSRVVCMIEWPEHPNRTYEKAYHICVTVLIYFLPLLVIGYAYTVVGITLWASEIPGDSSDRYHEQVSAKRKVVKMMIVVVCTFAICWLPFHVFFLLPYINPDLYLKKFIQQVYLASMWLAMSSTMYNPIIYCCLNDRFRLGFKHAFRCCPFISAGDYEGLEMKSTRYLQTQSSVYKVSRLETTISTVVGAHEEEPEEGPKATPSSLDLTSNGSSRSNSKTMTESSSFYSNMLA", "experiment": "Radioligand competition binding, [3H]substance P, rNK1/CHO membranes", "settings": "for IC50: LogIC50, rNK1, [3H]Substance P, Table 6, logarithm of IC50 (negative), CHO cell membranes"}, "[5]": {"settings": "read-out: Inhibition % at 1 μM, rNK1, [3H]Substance P"}}, "note": "Where two headings read alike, the source gives them in different places."}
{"molecule": "CC(C)C[C@H](NC(=O)[C@@H]1CCCN1C(=O)[C@H](Cc1ccccc1)NC(=O)CNC(=O)[C@@H](C)NC(=O)[C@@H](N)Cc1ccc(O)cc1)C(=O)N[C@@H](Cc1c[nH]c2ccccc12)C(=O)NCc1ccccc1", "note": "[TY008, H-Tyr-DAla-Gly-Phe-Pro-Leu-Trp-NH-Bzl]", "values": [{"measurement": "IC50", "setting": "[1]", "value": 31.6, "unit": "nM"}, {"measurement": "Ki", "setting": "[1]; Table 39, read-out: Affinity hNK1 (Ki; nM)", "value": 14, "unit": "nM"}, {"measurement": "Ki", "setting": "[1]; read-out: Ki (nM), hNK1, [3H]Substance P, Table 6, CHO cell membranes", "value": 14, "unit": "nM"}, {"measurement": "Ki", "setting": "[1]; read-out: Ki, hNK1", "value": 14, "unit": "nM"}, {"measurement": "logD7.4", "setting": "[2]", "value": 3.3}, {"measurement": "species difference between the guinea pig and the rat (NK1)", "setting": "[3]; GPI Ke vs rNK1 affinity", "value": "more than 40 fold"}, {"measurement": "Kb", "setting": "[3]; Substance P antagonist, GPI, Ke, in the presence of 1 μM naloxone", "value": "26 ± 3.9", "unit": "nM"}, {"measurement": "inhibition at 1 µM", "setting": "[4]; [5]", "value": "30 ± 9.9", "unit": "%"}, {"measurement": "inhibition at 1 µM", "setting": "[4]; read-out: inhibition at rNK1 receptor", "value": 30, "unit": "%"}]}
{"molecule": "CC(C)C[C@H](NC(=O)[C@@H]1CCCN1C(=O)[C@H](Cc1ccccc1)NC(=O)CNC(=O)[C@@H](C)NC(=O)[C@@H](N)Cc1ccc(O)cc1)C(=O)N[C@@H](Cc1c[nH]c2ccccc12)C(=O)N(C)Cc1ccccc1", "note": "[TY010, H-Tyr-D-Ala-Gly-Phe-Pro-Leu-Trp-NMe-Bzl]", "values": [{"measurement": "IC50", "setting": "[1]", "value": 3.16, "unit": "nM"}, {"measurement": "Ki", "setting": "[1]", "value": 100, "unit": "nM"}, {"measurement": "Ki", "setting": "[1]; read-out: Ki, hNK1", "value": 1.6, "unit": "nM"}, {"measurement": "logD7.4", "setting": "[2]", "value": 3.5}, {"measurement": "inhibition at 1 µM", "setting": "[4]; [5]", "value": "33 ± 7.6", "unit": "%"}]}
{"molecule": "CC(C)C[C@H](NC(=O)[C@@H]1CCCN1C(=O)[C@H](Cc1ccccc1)NC(=O)CNC(=O)[C@@H](C)NC(=O)[C@@H](N)Cc1ccc(O)cc1)C(=O)N[C@@H](Cc1c[nH]c2ccccc12)C(=O)OCc1ccccc1", "note": "[TY011, H-Tyr-DAla-Gly-Phe-Pro-Leu-Trp-O-Bzl]", "values": [{"measurement": "IC50", "setting": "[1]", "value": 200, "unit": "nM"}, {"measurement": "Ki", "setting": "[1]; read-out: Ki, hNK1", "value": 100, "unit": "nM"}, {"measurement": "logD7.4", "setting": "[2]", "value": 3.8}, {"measurement": "IC50", "setting": "[4]", "value": 794, "unit": "nM"}, {"measurement": "Ki", "setting": "[4]; read-out: Ki, rNK1", "value": 270, "unit": "nM"}]}
{"molecule": "CC(C)C[C@H](NC(=O)[C@@H]1CCCN1C(=O)[C@H](Cc1ccccc1)NC(=O)CNC(=O)[C@@H](C)NC(=O)[C@@H](N)Cc1ccc(O)cc1)C(=O)N[C@@H](Cc1c[nH]c2ccccc12)C(=O)NCc1cc(C(F)(F)F)cc(C(F)(F)F)c1", "note": "[TY012, H-Tyr-D-Ala-Gly-Phe-Pro-Leu-Trp-NH-3,5-Bzl(CF3)2]", "values": [{"measurement": "IC50", "setting": "[1]", "value": 1.26, "unit": "nM"}, {"measurement": "logD7.4", "setting": "[2]", "value": ">4"}, {"measurement": "IC50", "setting": "[4]", "value": 100, "unit": "nM"}]}
